Data: US7160889B2, “Quinazoline compounds” (AstraZeneca AB, priority 2000, dated 2007)

Target: T1, KDR receptor (Homo sapiens, UniProt P35968)
T1 construct: made in house; host or cells: insect cells (e.g. Spodoptera frugiperda Sf21, baculovirus)
Experiment: In vitro receptor tyrosine kinase inhibition test (a), KDR receptor
Assay type: biochemical
Conditions: using the KDR receptor
Excerpt: (a) In vitro Receptor Tyrosine Kinase Inhibition Test
This assay determines the ability of a test compound to inhibit tyrosine kinase activity. DNA encoding VEGF, FGF or EGF receptor cytoplasmic domains may be obtained by total gene synthesis (Edwards M, International Biotechnology Lab 5(3), 19–25, 1987) or by cloning. These may then be expressed in a suitable expression system to obtain polypeptide with tyrosine kinase activity. […] In the case of the VEGF receptor Flt (Genbank accession number X51602), a 7 kb DNA fragment encoding most of the cytoplasmic domain, commencing with methionine 783 and including the termination codon, described by Shibuya et al (Oncogene, 1990, 5: 519–524), was isolated from cDNA and cloned into a baculovirus transplacement vector (for example pAcYM1 (see The Baculovirus Expression System: A Laboratory Guide, L. A. King and R. D. Possee, Chapman and Hall, 1992) or pAc360 or pBlueBacHis (available from Invitrogen Corporation)). This recombinant construct was co-transfected into insect cells (for example Spodoptera frugiperda 21(Sf21)) with viral DNA (eg Pharmingen BaculoGold) to prepare recombinant baculovirus. […]

T1 sequence (P35968 786-1356 limits assumed): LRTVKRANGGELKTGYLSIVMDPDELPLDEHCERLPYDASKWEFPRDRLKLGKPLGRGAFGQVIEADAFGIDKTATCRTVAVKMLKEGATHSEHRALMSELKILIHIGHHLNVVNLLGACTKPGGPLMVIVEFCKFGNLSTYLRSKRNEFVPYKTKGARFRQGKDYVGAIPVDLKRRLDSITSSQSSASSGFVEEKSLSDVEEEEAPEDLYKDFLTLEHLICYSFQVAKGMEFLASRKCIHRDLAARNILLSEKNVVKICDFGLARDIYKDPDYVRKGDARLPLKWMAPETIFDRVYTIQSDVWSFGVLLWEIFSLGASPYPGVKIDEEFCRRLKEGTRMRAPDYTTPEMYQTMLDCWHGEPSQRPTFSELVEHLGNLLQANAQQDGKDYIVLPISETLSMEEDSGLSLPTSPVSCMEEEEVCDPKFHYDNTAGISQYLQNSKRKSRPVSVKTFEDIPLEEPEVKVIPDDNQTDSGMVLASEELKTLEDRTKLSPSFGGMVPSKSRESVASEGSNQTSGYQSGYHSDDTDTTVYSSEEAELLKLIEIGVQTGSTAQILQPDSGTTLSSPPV

COc1cc2c(Nc3ccc(Br)cc3F)ncnc2cc1OCC(O)CN1CCN(C)CC1 (stereo not shown) [Example 1]
IC50: 15 to 50 nM
